{"source": "patent US20250161310A1", "about": "“PHARMACEUTICAL COMBINATIONS FOR USE IN THE TREATMENT OF NEOPLASTIC DISEASES” (priority 2022, published 2025)", "key": {"[1]": {"tested_on": "BR1282 TNBC PDX tumor", "assay": "first PDX combination study (carboplatin first), BR1282", "protocol": "In a first PDX study, female BALB/c nude mice (CrownBio) of at least 20 g body weight were subcutaneously (s.c.) inoculated in the right flank with tumor fragments (3*3*3 mm) from stock mice bearing the patient-derived xenograft (PDX) triple negative breast cancer (TNBC) tumor, BR1282. Randomization into 5 different treatment groups (8 mice per group) was made when the mean tumor size was 150-200 mm^3. Mice were dosed intravenously (i.v.) twice weekly (2qw) with the compound of formula (I) (7 mg/kg, i.v., 5 mL/kg) or once weekly (qw) carboplatin (60 mg/kg, i.v., 10 mL/kg) or the combination of these doses, in which the compound of formula (I) was administered after carboplatin using either a 4 h or a 24 h gap, when both compounds were administered on the same day/consecutive days. The fifth group received both vehicles using the time interval of 4 h and all groups were dosed twice via the tail vein. Dosing was delayed by 1 day in any mice showing transient body weight loss of >10% at any time point.\n(§1) Carboplatin was purchased from Qilu Pharmaceutical Co. Ltd. as a solution (10 mg/mL in 5% (w/v) glucose in pure water). The compound of formula (I) was supplied as a powder by Basilea Pharmaceutica International Ltd. and was prepared freshly as a solution in Ethanol:PEG400:Citric acid 20 mM, at a ratio of 1:1:8 and at a final pH of 3.7, for immediate administration.\n(§2) Body weights and tumor volumes were determined at least twice per week, the latter by measuring two dimensions with calipers and applying the formula “V=(L×W^2)/2”, where V is the tumor volume, and L and W are the tumor length and width re-spectively. […] Mice were also culled if the BWL was determined to be >15% for 3 consecutive days. Any mice with >10% BWL, automatically were dosed on one of the following days, as soon as the BWL returned to <10%. All animal protocols were reviewed and approved by the relevant local committees in China, where the studies were performed.\n(§3) The statistical significance of efficacy were determined in two different ways using a) the endpoint on day 10 or day 14 depending on the study when it was necessary to cull the vehicle group because of tumor volume exceeding 1500 mm^3, and b) at the endpoint of day 31 in the first study when exponential curve fits were applied to estimate the rates of tumor growth in the different groups. The degree of an effect was quantified by the delta (A) treated/control ratio (ΔT/C) and the statistical significance of the effect was determined by a one-way analysis of variance (1W-ANOVA) with Holms-Sidak applied post-hoc for multiple determinations, where a p-value of <0.05 was considered statistically significant. In addition, an assessment of the combination effect was made based upon the Clarkes Combination Index (CCI), where the CCI=ΔT/CAB−(ΔT/CA*ΔT/CB) in which A and B are two different compounds and AB the combination thereof, where CCI<−0.1 indicates synergy (or a positive interaction), +0.1 (antagonism, or a negative interaction) and between −0.1 and +0.1 indicates additivity (no interaction); see O'Reilly et al. Anti Cancer Drugs 2011; 22:58-78."}, "[2]": {"tested_on": "BR1282 TNBC PDX tumor", "assay": "second PDX combination study (compound of formula (I) first), BR1282", "protocol": "In a second PDX study, the same model was used as for the first study (TNBC BR1282 PDX model), but this time compound of formula (I) (8 mg/kg, i.v., qw, 5 mL/kg) was administered first and carboplatin (60 mg/kg, i.v., qw, 6 mL/kg) second using a 4 h gap between both administrations and compound of formula (I) was provided qw. Consequently, the mice received both compounds on the same day (4 h gap).\nas §1, §2, §3"}, "[3]": {"tested_on": "SKOV-3 s.c. xenografts", "type": "in vivo", "conditions": "day 23; monotherapy: Formula (I) 7 mg/kg iv 2qw; Carboplatin 60 mg/kg iv qw", "protocol": "The anti-tumor activity of the compound of formula (I) in combination with carboplatin was evaluated in an ovarian cancer model, using human SKOV-3 cells grown as a solid tumor xenograft subcutaneously (s.c.) in nude mice.\nThe maximum tolerated dose (MTD) of the compound of formula (I) in combination with an optimal dose of carboplatin was defined in non-tumor bearing BALB/c nude mice in the experiments described above. […] Thus, in this study, using a human ovarian cell line derived xenograft (CDX) model, that schedule was applied and compared directly with the same order of administration with a 1 hr or 24 hr gap between compounds. In addition, the twice-weekly schedule was compared with a weekly schedule of 7 mg/kg BAL0891 (a weekly dose well below the MTD for compound of formula (I) monotherapy) using a 4 hr gap. Treatments continued until day 24 and tumor volumes and body weight were monitored until day 51."}, "[4]": {"conditions": "comparator Formula (I) monotherapy"}}, "note": "Marks after values point to notes of the source that are not given here."}
{"smiles": "N.N.O=C([O-])C1(C(=O)[O-])CCC1.[Pt+2]", "note": "[Carboplatin]", "values": [{"measurement": "Efficacy: ΔT/C Day 0 up to Day 31", "setting": "[1]; based on mean rate of growth (k), formula (I) 7 mg/kg 2qw i.v., carboplatin 60 mg/kg qw i.v., carboplatin first", "value": "0.75*"}, {"measurement": "Mean difference of mean rate of growth (k), Formula (I) vs. treatment", "setting": "[1]; [4]", "value": "−0.049"}, {"measurement": "Mean difference of mean rate of growth (k), Vehicle vs. treatment", "setting": "[1]; comparator Vehicle, day 0 to latest day 31", "value": 0.0350}, {"measurement": "Efficacy: ΔT/C Day 10", "setting": "[1]; mean change in tumor volume, formula (I) 7 mg/kg 2qw i.v., carboplatin 60 mg/kg qw i.v., carboplatin first", "value": 0.74}, {"measurement": "Tolerability (Day 10) ΔI/C", "setting": "[1]; mean fractional body weight change vs vehicle (BWday10/BWday0)", "value": 0.97}, {"measurement": "Tolerability (Day 10) ΔBW (%)", "setting": "[1]; mean ± SEM change in body weight, day 10", "value": "0.8 ± 1.2", "unit": "%"}, {"measurement": "Efficacy: ΔT/C Day 0 up to Day 17", "setting": "[2]; based on mean rate of growth (k), formula (I) 8 mg/kg qw first, carboplatin 60 mg/kg qw 4 h later", "value": 0.96}, {"measurement": "k means, Mean difference, Formula (I) vs. treatment", "setting": "[2]; [4]", "value": "−0.039"}, {"measurement": "Δ tumor volume on day 14, Mean difference, Formula (I) vs. treatment", "setting": "[2]; [4]", "value": "−350.8"}, {"measurement": "k means, Mean difference, Vehicle vs. treatment", "setting": "[2]; comparator Vehicle", "value": 0.007}, {"measurement": "Δ tumor volume on day 14, Mean difference, Vehicle vs. treatment", "setting": "[2]; comparator Vehicle", "value": 71.5}, {"measurement": "Efficacy: ΔT/C Day 14", "setting": "[2]; mean change in tumor volume, formula (I) 8 mg/kg qw i.v. first, carboplatin 60 mg/kg qw i.v. 4 h later", "value": 0.93}, {"measurement": "Tolerability (Day 14) ΔT/C", "setting": "[2]; mean fractional body weight change vs vehicle (BWday14/BWday0)", "value": 1.00}, {"measurement": "Tolerability (Day 14) ΔBW (%)", "setting": "[2]; mean ± SEM change in body weight, day 14", "value": "3.3 ± 2.6", "unit": "%"}, {"measurement": "ΔT/C", "setting": "[3]", "value": 0.72}]}
